Assays:
Assay type in all cases: biochemical
[1] = tested on: Collagenase from Clostridium histolyticum; test: In vitro anti-collagenase activity (FALGPA substrate)
Protocol: The assay employed was based on spectrophotometric methods reported in the literature. The assay was performed in 50 mM Tricine buffer (pH 7.5 with 400 mM NaCl and 10 mM CaCl2). Collagenase from Clostridium histolyticum (ChC-[…]) was dissolved in buffer for use at an initial concentration of 0.8 units/mL according to the supplier's activity data. The synthetic substrate N-[3-(2-furyl)acryloyl]-Leu-Gly-Pro-Ala (FALGPA) was dissolved in Tricine buffer to 2 mM. […] The final reaction mixture (150 μL total volume) contained Tricine buffer, 0.8 mM FALGPA, 0.1 units ChC and 20-100 μg test extracts. Negative controls were performed with water. Absorbance at 335 nm was measured immediately after adding substrate and then continuous for 20 minutes. EGCG, 250 μM (0.114 mg/mL) was used as a positive control. FIG. 9

[2] = target: Porcine pancreatic elastase (Sus scrofa, UniProt P00772); test: In vitro anti-elastase activity
Protocol: The assay employed was based on methods from the literature. This assay was performed in 0.2 mM Tris-HCL buffer (pH 8.0). Porcine pancreatic elastase (PE-E.C.3.4.21.36) was dissolved to make a 3.33 mg/mL stock solution in sterile water. The substrate N-succinyl-Ala-Ala-Ala-p-nitroanilide (AAAPVN) was dissolved in buffer at 1.6 mM. The test extracts were incubated with the enzyme for 15 minutes before adding substrate to begin the reaction. The final reaction mixture (250 μL total volume) contained buffer, 0.8 mM AAAPVN,1 mg/mL PE and 25 mg test extract. EGCG (1 mg/mL) was used as a positive control. Negative controls were performed using water. Absorbance values between 381 and 402 nm (following pre-screen scans) were measured immediately following addition of the substrate and then continuous for 20 minutes. FIG. 6

Mushroom tyrosinase = test: In vitro anti-tyrosinase activity (L-DOPA, dopachrome at 475 nm)
Protocol: Mushroom tyrosinase (Prod. No. T7755) and L-DOPA were purchased from Sigma Adrich. […] We also prepared positive controls of lmg/mL kojic acid solutions (with water), with enzyme. Twenty 20 μL of 0.85 mM L-DOPA solution as the substrate was added into every sample and blank. These assay mixtures were incubated at 25° C. for 10 min. The amount of dopachrome produced in the reaction mixture was measured at 475 nm.

Chain of Porcine pancreatic elastase (P00772 27-266): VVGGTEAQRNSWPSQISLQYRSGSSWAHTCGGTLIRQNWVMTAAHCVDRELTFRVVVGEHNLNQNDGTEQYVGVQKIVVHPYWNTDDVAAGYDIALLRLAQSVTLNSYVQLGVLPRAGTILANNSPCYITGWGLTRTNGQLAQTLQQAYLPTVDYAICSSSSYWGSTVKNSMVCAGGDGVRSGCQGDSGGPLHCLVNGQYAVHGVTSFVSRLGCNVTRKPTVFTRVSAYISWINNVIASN

| SMILES | % inhibition of Collagenase activity ([1]; 20 μg/ml) [%] | % inhibition of Collagenase activity ([1]; 40 μg/ml) [%] | % inhibition of Collagenase activity ([1]; 60 μg/ml) [%] | % inhibition of Collagenase activity ([1]; 80 μg/ml) [%] | % inhibition of Collagenase activity ([1]; 100 μg/ml) [%] | % inhibition of Elastase activity ([2]; 20 μg/ml) [%] | % inhibition of Elastase activity ([2]; 40 μg/ml) [%] | % inhibition of Elastase activity ([2]; 60 μg/ml) [%] | % inhibition of Elastase activity ([2]; 80 μg/ml) [%] | % inhibition of Elastase activity ([2]; 100 μg/ml) [%] | % inhibition of tyrosinase activity (Mushroom tyrosinase; 20 μg/ml) [%] | % inhibition of tyrosinase activity (Mushroom tyrosinase; 40 μg/ml) [%] | % inhibition of tyrosinase activity (Mushroom tyrosinase; 60 μg/ml) [%] | % inhibition of tyrosinase activity (Mushroom tyrosinase; 80 μg/ml) [%] | % inhibition of tyrosinase activity (Mushroom tyrosinase; 100 μg/ml) [%] |
| --- | --- | --- | --- | --- | --- | --- | --- | --- | --- | --- | --- | --- | --- | --- | --- |
| O=C(O[C@@H]1Cc2c(O)cc(O)cc2O[C@@H]1c1cc(O)c(O)c(O)c1)c1cc(O)c(O)c(O)c1 [EGCG, epigallocatechin gallate] | 8.30 | 16.93 | 25.83 | 32.70 | 41.52 | 43.98 | 54.36 | 53.32 | 60.37 | 62.45 |  |  |  |  |  |
| O=c1cc(CO)occ1O [Kojic acid, kojic acid] |  |  |  |  |  |  |  |  |  |  | 64.46 | 77.66 | 88.32 | 91.37 | 93.90 |
